{"source": "patent US9278094B2", "about": "“Treatments for depression and other diseases with a low dose agent” (PharmoRx Therapeutics, Inc., priority 2013, dated 2016)", "key": {"[1]": {"conditions": "low dose naltrexone (e.g. less than 10 mg); cited from earlier work"}, "[2]": {"system": "Restless Leg Syndrome (RLS)", "conditions": "RLS treated with D2/D3 agonists pramipexole or ropinirole; Philips Respironics Actigraphy; see U.S. Ser. No. 12/603,235; cited from earlier work"}, "[3]": {"target": "C-terminal pentapeptide of the scaffolding protein filamin A (Homo sapiens, UniProt P21333)", "sequence (P21333 whole entry)": "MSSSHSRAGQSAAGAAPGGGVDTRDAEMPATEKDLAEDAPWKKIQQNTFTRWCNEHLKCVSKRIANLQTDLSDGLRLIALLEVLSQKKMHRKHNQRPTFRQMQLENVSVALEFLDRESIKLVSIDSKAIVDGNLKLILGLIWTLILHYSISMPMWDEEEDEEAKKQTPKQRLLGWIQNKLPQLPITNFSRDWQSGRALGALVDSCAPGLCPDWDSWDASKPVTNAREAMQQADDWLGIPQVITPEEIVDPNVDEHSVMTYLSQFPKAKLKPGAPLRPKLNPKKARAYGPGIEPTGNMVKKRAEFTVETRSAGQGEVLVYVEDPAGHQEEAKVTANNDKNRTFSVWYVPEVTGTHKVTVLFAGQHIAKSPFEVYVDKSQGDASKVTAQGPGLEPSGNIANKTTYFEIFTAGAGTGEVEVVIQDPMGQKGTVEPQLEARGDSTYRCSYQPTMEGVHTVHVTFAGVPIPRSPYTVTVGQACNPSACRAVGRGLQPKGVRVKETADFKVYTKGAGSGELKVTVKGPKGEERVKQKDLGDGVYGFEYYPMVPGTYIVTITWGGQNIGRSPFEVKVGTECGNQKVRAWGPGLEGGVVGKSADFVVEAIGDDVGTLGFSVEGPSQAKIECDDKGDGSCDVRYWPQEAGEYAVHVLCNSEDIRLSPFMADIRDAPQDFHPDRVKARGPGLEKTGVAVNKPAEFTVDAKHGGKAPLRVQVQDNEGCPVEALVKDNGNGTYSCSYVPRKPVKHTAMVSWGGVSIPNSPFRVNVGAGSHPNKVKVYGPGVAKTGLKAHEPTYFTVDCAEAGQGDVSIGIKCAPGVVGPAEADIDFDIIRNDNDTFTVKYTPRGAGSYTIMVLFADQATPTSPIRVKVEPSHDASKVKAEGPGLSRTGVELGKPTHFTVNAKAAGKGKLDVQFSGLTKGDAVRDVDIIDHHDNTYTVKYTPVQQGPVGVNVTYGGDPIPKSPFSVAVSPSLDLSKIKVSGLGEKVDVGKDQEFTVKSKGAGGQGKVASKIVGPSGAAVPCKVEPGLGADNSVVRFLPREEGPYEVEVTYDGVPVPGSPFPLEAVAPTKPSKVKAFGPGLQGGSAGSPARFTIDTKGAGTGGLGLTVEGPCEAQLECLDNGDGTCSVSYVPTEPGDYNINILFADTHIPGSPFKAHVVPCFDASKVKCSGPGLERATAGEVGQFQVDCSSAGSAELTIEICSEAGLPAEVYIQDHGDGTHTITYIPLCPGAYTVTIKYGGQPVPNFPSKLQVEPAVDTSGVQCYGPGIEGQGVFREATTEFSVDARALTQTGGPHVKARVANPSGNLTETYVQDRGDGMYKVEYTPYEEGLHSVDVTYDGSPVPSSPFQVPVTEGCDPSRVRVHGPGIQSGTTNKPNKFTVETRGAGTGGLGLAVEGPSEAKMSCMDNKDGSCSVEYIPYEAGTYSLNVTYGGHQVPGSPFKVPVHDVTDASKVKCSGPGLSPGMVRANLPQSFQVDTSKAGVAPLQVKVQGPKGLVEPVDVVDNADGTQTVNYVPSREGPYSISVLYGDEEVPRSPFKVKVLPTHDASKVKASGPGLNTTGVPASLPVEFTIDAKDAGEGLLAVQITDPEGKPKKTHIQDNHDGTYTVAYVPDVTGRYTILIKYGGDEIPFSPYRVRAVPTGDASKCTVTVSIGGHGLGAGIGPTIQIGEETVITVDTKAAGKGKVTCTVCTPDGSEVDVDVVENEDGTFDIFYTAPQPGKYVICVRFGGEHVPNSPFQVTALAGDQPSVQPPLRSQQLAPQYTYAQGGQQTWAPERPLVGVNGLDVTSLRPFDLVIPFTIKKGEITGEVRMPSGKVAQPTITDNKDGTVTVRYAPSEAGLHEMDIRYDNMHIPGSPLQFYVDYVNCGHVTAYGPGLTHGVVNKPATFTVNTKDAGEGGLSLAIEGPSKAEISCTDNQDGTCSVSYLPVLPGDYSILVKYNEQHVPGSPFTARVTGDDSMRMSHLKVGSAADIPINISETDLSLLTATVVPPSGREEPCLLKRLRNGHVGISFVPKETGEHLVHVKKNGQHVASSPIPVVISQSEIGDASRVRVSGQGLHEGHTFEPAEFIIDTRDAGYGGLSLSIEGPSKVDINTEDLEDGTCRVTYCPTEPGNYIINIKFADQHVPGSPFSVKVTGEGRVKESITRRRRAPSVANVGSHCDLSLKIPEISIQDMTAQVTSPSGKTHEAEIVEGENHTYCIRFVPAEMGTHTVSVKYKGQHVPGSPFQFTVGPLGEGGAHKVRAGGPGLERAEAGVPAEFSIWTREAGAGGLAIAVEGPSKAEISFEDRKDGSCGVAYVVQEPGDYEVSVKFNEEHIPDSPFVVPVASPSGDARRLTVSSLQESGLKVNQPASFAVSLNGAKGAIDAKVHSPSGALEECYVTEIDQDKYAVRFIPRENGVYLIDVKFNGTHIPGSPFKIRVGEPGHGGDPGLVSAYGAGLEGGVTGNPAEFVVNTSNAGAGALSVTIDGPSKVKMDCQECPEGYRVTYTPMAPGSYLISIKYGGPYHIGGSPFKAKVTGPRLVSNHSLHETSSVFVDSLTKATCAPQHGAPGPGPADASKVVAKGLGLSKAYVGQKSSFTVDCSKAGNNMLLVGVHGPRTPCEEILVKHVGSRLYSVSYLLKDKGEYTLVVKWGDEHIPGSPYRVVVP", "conditions": "Wang, Frankfurt, & Burns, 2008; cited from earlier work"}, "[4]": {"system": "patients with breakthrough depression (BTD)", "experiment": "Clinical testing of low dose naltrexone treatment of depression (double-blind, placebo-controlled)", "assay_type": "in vivo, human"}, "patients with depression": {"system": "patients with depression", "experiment": "Patient responses to low dose naltrexone treatment of depression (case reports)", "procedure": "Patient #1: A middle aged person suffered severe depression with recurrent major depressive episodes. […] The former pharmacologic regimen was otherwise unchanged.\nPatient #3: A patient presented with treatment-resistant depression. The patient was also diagnosed with Attention Deficit Disorder. The patient initially was treated with s-citalopram 15 mg, augmented by dextro-amphetamine.\nPatient #4: A patient weighing approximately 60 kg had suffered severe unremitting depression. […] Subsequently, the patient was prescribed 5 mg naltrexone daily with continuation of s-citalopram.\nThey were being treated with buproprion XL 300 mg, augmented with melatonin 3 mg and N-acetyl-cysteine 1200 mg.\nPatient #6: A patient with multiple major depression episodes, anhedonia, apathy, low energy and poor sleep was being treated with duloxetine 60 mg and buproprion 75 mg, and mirtazpine 15 mg. […] They also called and e-mailed multiple times per day. They were being treated with Effexor XR 75 mg QHS, Xanax 0.5 mg, and Clonazepam 1.5 mg.\nThe patient was then co-administered 1 mg daily of naltrexone with pramipexole.\nPatient #9: A middle-age person suffered severe depression with recurrent major depressive episodes and social anxiety. They were being treated with Adderall 10 mg, levothyroxine 50 mcg, and propranol 10 mg."}}}
{"smiles": "O=C1CC[C@@]2(O)[C@H]3Cc4ccc(O)c5c4[C@@]2(CCN3CC2CC2)[C@H]1O5", "note": "[naltrexone, 17-(cyclopropylmethyl)-4,5α-epoxy-3,14-dihydroxymorphinan-6-one]", "values": [{"measurement": "effects of opioid agonists", "setting": "[1]", "result": "enhance the effects of opioid agonists"}, {"measurement": "control of periodic limb movements of sleep", "setting": "[2]", "result": "equivalent control of limb movements at one-half the prior dose of D2/D3 agonists"}, {"measurement": "Kd", "setting": "[3]", "result": "< 5", "unit": "pM"}, {"measurement": "rates of response on all outcome measures (HAM-D-17, HAM-D-28, MADRS-10, MADRS-15, CGI-S, CGI-I)", "setting": "[4]; 1 mg bid, on antidepressant regimen containing a pro-dopaminergic agent, versus placebo, three weeks", "result": "higher rates of response"}, {"measurement": "persistence of response", "setting": "[4]; 1 mg bid, patients on active drug followed six weeks", "result": "continued during the entire six week trial period"}, {"measurement": "Quality of Life, Enjoyment, and Satisfaction Questionnaire (Q-LES-Q) score", "setting": "[4]; compared to placebo controls", "result": "greater improvement"}, {"measurement": "Sheehan Disability Scale (SDS) score", "setting": "[4]; compared to placebo controls", "result": "greater improvement"}, {"measurement": "time to remission after initiating", "setting": "patients with depression; Patient #1, about 1 mg naltrexone daily", "result": "About one"}, {"measurement": "duration of maintained remission", "setting": "patients with depression; Patient #1, adjunctive naltrexone 1 mg daily, continuing to present", "result": "more than 6 months"}, {"measurement": "duration of maintained response", "setting": "patients with depression; Patient #2", "result": "over 2 years"}, {"measurement": "time to response", "setting": "patients with depression; Patient #2", "result": "≤ 2", "unit": "weeks"}, {"measurement": "attention", "setting": "patients with depression; Patient #3, Attention Deficit Disorder, naltrexone 1 mg added, within days", "result": "much improved"}, {"measurement": "adverse effects reported", "setting": "patients with depression; Patient #3, naltrexone 1 mg", "result": "no adverse effects"}, {"measurement": "mood response", "setting": "patients with depression; Patient #3, naltrexone 1 mg added to s-citalopram 15 mg and dextro-amphetamine, within days", "result": "marked lifting of mood"}, {"measurement": "duration of observation remaining euthymic", "setting": "patients with depression; Patient #4", "result": "more than two"}, {"measurement": "time to remission", "setting": "patients with depression; Patient #5", "result": "two"}, {"measurement": "duration of improvement", "setting": "patients with depression; Patient #5, and continuing", "result": "five"}, {"measurement": "time to response", "setting": "patients with depression; Patient #6", "result": "one"}, {"measurement": "time to response", "setting": "patients with depression; Patient #7", "result": "three"}]}
{"smiles": "CCCN[C@H]1CCc2nc(N)sc2C1", "note": "[pramipexole, (S)—N^6-propyl-4,5,6,7-tetrahydro-1,3-benzothiazole-2,6-diamine]", "values": [{"measurement": "benefit in depression before naltrexone", "setting": "patients with depression; Patient #8, pramipexole without naltrexone", "result": "limited benefit"}]}
{"smiles": "O=C1CCc2ccc(OCCCCN3CCN(c4cccc(Cl)c4Cl)CC3)cc2N1", "note": "[aripiprazole, 7-{4-[4-(2,3-Dichlorophenyl)piperazin-1-yl]butoxy}-3,4-dihydroquinolin-2(1H)-one]", "values": [{"measurement": "earlier response of depression", "setting": "patients with depression; Patient #1, in the past, before naltrexone", "result": "transiently responded"}]}
